Assay: xn = mol fraction of the nth substance listed
Conditions: 101 kPa, Liquid; for viscosity: Falling or rolling sphere viscometry; for mass density: Vibrating tube method

CCOS(=O)(=O)[O-].CC[N+]1(C)CCCC1 [1-ethyl-1-methylpyrrolidinium ethyl sulfate] + O
Conditions | mass density [kg/m3] | viscosity [mPa·s]
313.15 K, x1 = 0.0348 | 1046.88 | 1.414
313.15 K, x1 = 0.0933 | 1095.76 | 3.185
313.15 K, x1 = 0.1312 | 1114.51 | 5.031
313.15 K, x1 = 0.2458 | 1144.25 | 10.31
313.15 K, x1 = 0.3495 | 1155.83 | 15.65
313.15 K, x1 = 0.5281 | 1166.58 | 27.98
313.15 K, x1 = 0.693 | 1171.73 | 42.48
313.15 K, x1 = 0.7794 | 1172.62 | 51.33
313.15 K, x1 = 0.895 | 1174.19 | 64.67
313.15 K, x1 = 1 | 1176.31 | 78.32
318.15 K, x1 = 0.0348 | 1044.06 | 1.27
318.15 K, x1 = 0.0933 | 1092.47 | 2.8
318.15 K, x1 = 0.1312 | 1111.07 | 4.391
318.15 K, x1 = 0.2458 | 1140.77 | 8.889
318.15 K, x1 = 0.3495 | 1152.31 | 13.37
318.15 K, x1 = 0.5281 | 1163.34 | 23.71
318.15 K, x1 = 0.693 | 1168.5 | 35.67
318.15 K, x1 = 0.7794 | 1169.22 | 42.9
318.15 K, x1 = 0.895 | 1171.07 | 53.73
318.15 K, x1 = 1 | 1173.63 | 64.72
323.15 K, x1 = 0.0348 | 1041.44 | 1.149
323.15 K, x1 = 0.0933 | 1089.13 | 2.479
323.15 K, x1 = 0.1312 | 1107.59 | 3.87
323.15 K, x1 = 0.2458 | 1137.17 | 7.729
323.15 K, x1 = 0.3495 | 1149.28 | 11.6
323.15 K, x1 = 0.5281 | 1160.06 | 20.29
323.15 K, x1 = 0.693 | 1165.16 | 30.18
323.15 K, x1 = 0.7794 | 1165.65 | 36.07
323.15 K, x1 = 0.895 | 1167.97 | 44.78
323.15 K, x1 = 1 | 1170.95 | 53.51
328.15 K, x1 = 0.0348 | 1038.48 | 1.046
328.15 K, x1 = 0.0933 | 1085.76 | 2.211
328.15 K, x1 = 0.1312 | 1103.99 | 3.392
328.15 K, x1 = 0.2458 | 1133.19 | 6.803
328.15 K, x1 = 0.3495 | 1145.36 | 10.13
328.15 K, x1 = 0.5281 | 1156.72 | 17.54
328.15 K, x1 = 0.693 | 1161.95 | 25.84
328.15 K, x1 = 0.7794 | 1162.9 | 30.7
328.15 K, x1 = 0.895 | 1164.87 | 37.8
328.15 K, x1 = 1 | 1168.27 | 44.82
333.15 K, x1 = 0.0348 | 1035.45 | 0.992
333.15 K, x1 = 0.0933 | 1082.31 | 1.985
333.15 K, x1 = 0.1312 | 1100.26 | 2.943
333.15 K, x1 = 0.2458 | 1129.65 | 6.014
333.15 K, x1 = 0.3495 | 1142.23 | 8.896
333.15 K, x1 = 0.5281 | 1153.16 | 15.32
333.15 K, x1 = 0.693 | 1158.04 | 22.4
333.15 K, x1 = 0.7794 | 1160.04 | 26.46
333.15 K, x1 = 0.895 | 1162.1 | 32.29
333.15 K, x1 = 1 | 1165.59 | 37.95
338.15 K, x1 = 0.0348 | 1033.08 | 0.983
338.15 K, x1 = 0.0933 | 1079.2 | 1.8
338.15 K, x1 = 0.1312 | 1097.07 | 2.454
338.15 K, x1 = 0.2458 | 1125.34 | 5.34
338.15 K, x1 = 0.3495 | 1138.14 | 7.739
338.15 K, x1 = 0.5281 | 1150.02 | 13.29
338.15 K, x1 = 0.693 | 1155.15 | 19.06
338.15 K, x1 = 0.7794 | 1156.48 | 22.65
338.15 K, x1 = 0.895 | 1158.93 | 27.65
338.15 K, x1 = 1 | 1162.91 | 32.87
343.15 K, x1 = 0.0348 | 1030.38 | 0.976
343.15 K, x1 = 0.0933 | 1075.92 | 1.61
343.15 K, x1 = 0.1312 | 1093.61 | 1.923
343.15 K, x1 = 0.2458 | 1122.44 | 4.202
343.15 K, x1 = 0.3495 | 1135.34 | 6.568
343.15 K, x1 = 0.5281 | 1146.94 | 11.31
343.15 K, x1 = 0.693 | 1152.01 | 16.47
343.15 K, x1 = 0.7794 | 1153.23 | 19.55
343.15 K, x1 = 0.895 | 1155.85 | 24.69
343.15 K, x1 = 1 | 1160.23 | 29.23

From the NIST ThermoML archive (doi:10.1016/j.tca.2014.02.019)
